For 18 molecules, T/C results are on record in PubChem BioAssay AID330 (DTP/NCI, 2004).

“And” between values parts separate entries of the source, which are not always exact repeats. Equal entries are not always repeated. Inconclusive results and toxic doses are left out.

This experiment relates to P388 leukemia ip, CD2F1 mice, survival T/C. The experiment can be described thus: NCI In Vivo Anticancer Drug Screen. Data for tumor model P388 Leukemia (intraperitoneal) in CD2F1 (CDF1) mice. The note with it: endpoint: median survival time, higher = longer survival. Summed up:
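Mice carrying the transplanted tumor received test compound or vehicle. Survival was recorded in each group, and the value is the treated-group measurement divided by that of the vehicle-treated control group.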

Setting [1] is: dose: 50.0 mg/kg/injection, schedule: Q01DX009 (ip), vehicle: Klucel (hydroxypropylcellulose) (HPC).
[2] abbreviates: dose: 100.0 mg/kg/injection, schedule: Q01DX009 (ip), vehicle: Klucel (hydroxypropylcellulose) (HPC).
The mark [3] stands for this setting: dose: 200.0 mg/kg/injection, schedule: Q01DX009 (ip), vehicle: Klucel (hydroxypropylcellulose) (HPC).

As for `CC1(Cl)C(=O)OC2CCC(O)C(O)C21` (configuration not stated), the T/C (dose: 100.0 mg/kg/injection, schedule: Q04DX003 (ip), vehicle: Klucel (hydroxypropylcellulose) (HPC)) is 101 % of control; the T/C (dose: 200.0 mg/kg/injection, schedule: Q04DX003 (ip), vehicle: Klucel (hydroxypropylcellulose) (HPC)) was 102 % of control; the T/C (dose: 400.0 mg/kg/injection, schedule: Q04DX003 (ip), vehicle: Klucel (hydroxypropylcellulose) (HPC)) is 106 % of control.

With `CCCCCCCC(=O)NN(Cn1c(=S)sc2ccccc21)Cn1c(=S)sc2ccccc21`, the T/C was 96 % of control (dose: 50.0 mg/kg/injection, schedule: Q01DX005 (ip), vehicle: Klucel (hydroxypropylcellulose) (HPC)); 88 % of control (dose: 100.0 mg/kg/injection, schedule: Q01DX005 (ip), vehicle: Klucel (hydroxypropylcellulose) (HPC)); 88 % of control (dose: 200.0 mg/kg/injection, schedule: Q01DX005 (ip), vehicle: Klucel (hydroxypropylcellulose) (HPC)).

Consider `CN(C)CC(CN(C)C)C(=O)c1ccc2c(c1)OCO2`, for which the T/C is 122 % of control (dose: 15.0 mg/kg/injection, schedule: Q01DX005 (ip), vehicle: saline); 117 % of control (dose: 30.0 mg/kg/injection, schedule: Q01DX005 (ip), vehicle: saline); 119 % of control (dose: 60.0 mg/kg/injection, schedule: Q01DX005 (ip), vehicle: saline).

For the molecule `O=CCC(O)C(O)C(O)CO` (configuration not stated), the T/C (dose: 150.0 mg/kg/injection, schedule: Q01DX009 (ip), vehicle: saline) was 107 % of control; the T/C (dose: 300.0 mg/kg/injection, schedule: Q01DX009 (ip), vehicle: saline) is 100 % of control and 104 % of control and 121 % of control; the T/C (dose: 600.0 mg/kg/injection, schedule: Q01DX009 (ip), vehicle: saline) was 107 % of control and 112 % of control and 121 % of control; the T/C (dose: 1200.0 mg/kg/injection, schedule: Q01DX009 (ip), vehicle: saline) was 103 % of control; the T/C (dose: 2400.0 mg/kg/injection, schedule: Q01DX009 (ip), vehicle: saline) was 110 % of control and 91 % of control.

Regarding `Cc1cc2cc3c(=O)[nH]c(=O)nc-3n(CC(O)C(O)C(O)CO)c2cc1C` (configuration not stated), the T/C runs as follows: (dose: 15.0 mg/kg/injection, schedule: Q01DX005 (ip), vehicle: saline with Tween-80) 101 % of control and 103 % of control; (dose: 30.0 mg/kg/injection, schedule: Q01DX005 (ip), vehicle: saline with Tween-80) 116 % of control and 98 % of control.

For the molecule `CCCCCCCC(=O)OCC(=O)[C@]1(O)Cc2c(O)c3c(c(O)c2[C@@H](OC2CC(N)C(O)C(C)O2)C1)C(=O)c1c(OC)cccc1C3=O` (some centres not stated), the T/C is 159 % of control (dose: 0.5 mg/kg/injection, schedule: Q01DX009 (ip), vehicle: saline sonified); 178 % of control (dose: 0.5 mg/kg/injection, schedule: Q01DX009 (ip), vehicle: saline with Tween-80); 158 % of control (dose: 0.5 mg/kg/injection, schedule: Q01DX009 (ip), vehicle: water); 190 % of control (dose: 1.0 mg/kg/injection, schedule: Q01DX009 (ip), vehicle: saline sonified); 185 % of control (dose: 1.0 mg/kg/injection, schedule: Q01DX009 (ip), vehicle: saline with Tween-80); 181 % of control (dose: 1.0 mg/kg/injection, schedule: Q01DX009 (ip), vehicle: water). In addition, the T/C is, setting by setting: (dose: 1.73 mg/kg/injection, schedule: Q04DX003 (ip), vehicle: water) 172 % of control; (dose: 2.0 mg/kg/injection, schedule: Q01DX009 (ip), vehicle: saline sonified) 231 % of control; (dose: 2.0 mg/kg/injection, schedule: Q01DX009 (ip), vehicle: water) 247 % of control; (dose: 2.88 mg/kg/injection, schedule: Q04DX003 (ip), vehicle: water) 198 % of control; (dose: 4.0 mg/kg/injection, schedule: Q01DX009 (ip), vehicle: saline with Tween-80) 209 % of control and 92 % of control; (dose: 4.0 mg/kg/injection, schedule: Q01DX009 (ip), vehicle: water) 104 % of control. The T/C runs as follows: (dose: 4.8 mg/kg/injection, schedule: Q04DX003 (ip), vehicle: water) 202 % of control; (dose: 8.0 mg/kg/injection, schedule: Q01DX009 (ip), vehicle: saline with Tween-80) 114 % of control; (dose: 8.0 mg/kg/injection, schedule: Q04DX003 (ip), vehicle: water) 190 % of control; (dose: 13.3 mg/kg/injection, schedule: Q04DX003 (ip), vehicle: water) 111 % of control.

As for `NCCNCCN1C(=O)c2cccc3cccc(c23)C1=O`, the T/C is, setting by setting: (dose: 100.0 mg/kg/injection, schedule: Q01DX001 (ip), vehicle: saline) 110 % of control; (dose: 200.0 mg/kg/injection, schedule: Q01DX001 (ip), vehicle: saline) 86 % of control.

Regarding `COC(=O)[C@@]12OC[C@@]34[C@@H](CC5=C(C)C(=O)C(O)=C[C@]5(C)[C@H]3[C@@H](O)[C@@H]1O)OC(=O)[C@H](OC(=O)/C=C(\C)C(C)(C)OC(C)=O)[C@@H]24`, the T/C (dose: 0.25 mg/kg/injection, schedule: Q01DX009 (ip), vehicle: saline + alcohol) is 106 % of control; the T/C (dose: 0.5 mg/kg/injection, schedule: Q01DX009 (ip), vehicle: saline + alcohol) was 110 % of control and 123 % of control; the T/C (dose: 4.0 mg/kg/injection, schedule: Q01DX009 (ip), vehicle: saline + alcohol) was 157 % of control and 159 % of control; the T/C (dose: 8.0 mg/kg/injection, schedule: Q01DX009 (ip), vehicle: saline + alcohol) was 175 % of control.

Take `Cc1c/c(=N\O)c2c(=O)c([N+](=O)[O-])coc2n1O`: the T/C under setting [1] is 100 % of control, the T/C under setting [2] was 100 % of control and the T/C under setting [3] was 97 % of control.

In the case of `COc1ccc(CCNC(=O)CC2CCN(C)CC2)cc1OC`, the T/C by setting is: (dose: 100.0 mg/kg/injection, schedule: Q04DX003 (ip), vehicle: saline with Tween-80) 101 % of control; (dose: 200.0 mg/kg/injection, schedule: Q04DX003 (ip), vehicle: saline with Tween-80) 100 % of control.

For `Nc1ccccc1CN1C(=O)CCC1=O`, the T/C by setting is: (dose: 50.0 mg/kg/injection, schedule: Q01DX009 (ip), vehicle: saline) 105 % of control; (dose: 100.0 mg/kg/injection, schedule: Q01DX009 (ip), vehicle: saline) 101 % of control; (dose: 200.0 mg/kg/injection, schedule: Q01DX009 (ip), vehicle: saline) 99 % of control.

Take `N#Cc1n[nH]c2nc(=S)sc(N)c12`: the T/C is 103 % of control (dose: 100.0 mg/kg/injection, schedule: Q04DX002 (ip), vehicle: water); 90 % of control (dose: 200.0 mg/kg/injection, schedule: Q04DX002 (ip), vehicle: water); 97 % of control (dose: 400.0 mg/kg/injection, schedule: Q04DX002 (ip), vehicle: water).

Take `COc1ccc2c(c1)CSCC2=O`: the T/C was 98 % of control under setting [1], 98 % of control under setting [2] and 100 % of control under setting [3].

As to `CCc1c(C)c(SC)n(C)c(=O)c1C#N`, the T/C (dose: 25.0 mg/kg/injection, schedule: Q01DX009 (ip), vehicle: Klucel (hydroxypropylcellulose) (HPC)) was 99 % of control; the T/C under setting [1] was 100 % of control; the T/C under setting [2] was 97 % of control; the T/C under setting [3] was 91 % of control.

Take `CCN(CC)c1ccc(C(NCCC(C)C)C(Cl)(Cl)Cl)cc1` (configuration not stated): the T/C (dose: 50.0 mg/kg/injection, schedule: Q01DX005 (ip), vehicle: saline) was 97 % of control; the T/C (dose: 100.0 mg/kg/injection, schedule: Q01DX005 (ip), vehicle: saline) is 101 % of control; the T/C (dose: 200.0 mg/kg/injection, schedule: Q01DX005 (ip), vehicle: saline) is 101 % of control.

Regarding `CC1(Br)CN([C@@H](C(=O)O)c2ccccc2)C1=O` (some centres not stated), the T/C is 102 % of control (dose: 50.0 mg/kg/injection, schedule: Q04DX002 (ip), vehicle: saline with Tween-80); 96 % of control (dose: 100.0 mg/kg/injection, schedule: Q04DX002 (ip), vehicle: saline with Tween-80); 93 % of control (dose: 200.0 mg/kg/injection, schedule: Q04DX002 (ip), vehicle: saline with Tween-80); 102 % of control (dose: 400.0 mg/kg/injection, schedule: Q04DX002 (ip), vehicle: saline with Tween-80).

On to `[Br][Sn]([CH2][Sn]([Br])([c]1ccccc1)[c]1ccccc1)([c]1ccccc1)[c]1ccccc1`, for which the T/C (dose: 6.25 mg/kg/injection, schedule: Q01DX005 (ip), vehicle: Klucel (hydroxypropylcellulose) (HPC)) is 110 % of control.

As for `O=C(NCC(O)CNC(=O)Nc1ccc(C2=NCC(O)CN2)cc1)Nc1ccc(C2=NCC(O)CN2)cc1` (configuration not stated), the T/C (dose: 12.5 mg/kg/injection, schedule: Q01DX005 (ip), vehicle: saline with Tween-80) is 95 % of control; the T/C (dose: 25.0 mg/kg/injection, schedule: Q01DX005 (ip), vehicle: saline with Tween-80) was 100 % of control; the T/C (dose: 50.0 mg/kg/injection, schedule: Q01DX005 (ip), vehicle: saline with Tween-80) was 109 % of control and 97 % of control.
